Test results: patent CN102066974A, “用于蛋白、肽和其他分子的f-18标记的改进方法和组合物” (Immunomedics Inc, priority 2008, dated 2011)
Where “and” joins values, the source holds several entries; their conditions need not be identical. Equal entries are not always repeated. Blank lines part the entries; values can stand above or below the compound they belong to. Numbered stars: 1 amine (or outer) side, 2 acyl side, 3 side chain; on linkers, the order of the positions; unused ones are H or OH. Square brackets hold non-standard residues; d marks the D form. Side chains are listed from the residue outwards. Peptide text beside a SMILES is read from it. * marks the point of attachment. NOTA(2S-Bn(4-NHCS)) = O=C(O)CN1CCN(CC(=O)O)C[C@H](Cc2ccc(NC(=S)*)cc2)N(CC(=O)O)CC1; X1 = O=C(O)CN1CCN(CC(=O)O)CC(Cc2ccc(NC(=S)*)cc2)N(CC(=O)O)CC1; DOTA = O=C(O)CN1CCN(CC(=O)O)CCN(CC(=O)*)CCN(CC(=O)O)CC1; DTPA = O=C(O)CN(CCN(CC(=O)O)CC(=O)O)CCN(CC(=O)O)CC(=O)*; NH(2-(imidazol-4-yl)ethyl) = c1ncc(CCN*)[nH]1; NOTA = O=C(O)CN1CCN(CC(=O)O)CCN(CC(=O)*)CC1; X2 = N[C@H](CC(=O)*)c1ccccc1Br; Suc = O=C(CCC(=O)[*:2])[*:1]; Dap = NC[C@H](N)C(=O)O; Aoc = NCCCCCCCC(=O)O

Experiments:
[1] = Stability of labelled peptide in human serum at 37℃, HPLC; format: in vitro ADME; conditions: for activity still attached to peptide: crude 18F labelling mixture (35% bound at start), pooled human serum 37℃; for 18F-labelled peptide stable in serum: purified 18F-labelled peptide
RIIα二聚体 = RIIα二聚体 (Homo sapiens, UniProt P13861); conditions: Stokka et al. 2006; cited from earlier work
Sequence of RIIα二聚体 (P13861 whole entry): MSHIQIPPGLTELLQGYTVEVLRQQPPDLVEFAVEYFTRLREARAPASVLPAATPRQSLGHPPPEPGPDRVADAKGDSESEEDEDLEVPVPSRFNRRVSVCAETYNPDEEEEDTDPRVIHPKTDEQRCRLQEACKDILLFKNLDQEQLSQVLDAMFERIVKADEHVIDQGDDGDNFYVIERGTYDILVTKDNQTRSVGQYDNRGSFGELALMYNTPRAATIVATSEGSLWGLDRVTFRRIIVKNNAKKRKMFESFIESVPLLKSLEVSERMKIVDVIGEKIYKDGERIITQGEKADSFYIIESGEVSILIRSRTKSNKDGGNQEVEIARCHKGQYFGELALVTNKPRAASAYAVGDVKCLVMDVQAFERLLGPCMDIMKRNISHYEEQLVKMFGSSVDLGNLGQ

PC-3细胞 = format: binding; conditions: first experiment, inhibitor 56 to 0.44 nM
AR42J肿瘤 = test: Biodistribution in BALB/c nude mice with s.c. AR42J tumours; format: in vivo, mouse; conditions: 2 h p.i.
[2] = Biodistribution of unbound 18F fraction and purified [Al18F]IMP 449 in SCID mice, no pretargeting; format: in vivo, mouse; conditions: 1 h p.i., no bsMAb
CaPan1异种移植物 = test: TF10-pretargeted biodistribution in nude mice with CaPan1 xenografts; format: in vivo, mouse; conditions: 1 h after peptide, TF10 (162μg) pretargeted 18 h before
LS174 T异种移植物 = test: Biodistribution of 111In-IMP 449 and [Al18F]IMP 449 with or without TF2 in nude mice with sc LS174T xenografts; format: in vivo, mouse; conditions: 1 h after peptide
LS174T肿瘤 [3] = test: TF2-pretargeted biodistribution in BALB/c nude mice with s.c. LS174T tumours (Example 27)
LS174T肿瘤 [4] = test: PET/CT image quantification (region of interest ratios); conditions: mouse, in vivo
[5] = Stability of Al18F-peptide complex in water (peptide labelling screen); format: physicochemical
H1和H2组胺受体 = test: In vitro study on cell lines bearing H1 and H2 histamine receptors; format: cell-based
[6] = in vivo

Compound: C-NETA-琥珀酰-D-Lys(HSG)-D-Tyr-D-Lys(HSG)-NH2 [IMP 467]
decomposition of 18F-labelled peptide in serum ([1]; HLB-purified, human serum 37℃, 5 h): 没有可检测的分解

Compound: FEELAWKIAKMIWSDVFQQC [PV-38]
PKA isoform preference (RIIα二聚体): 对RI更大的亲和力

Compound: CSCC[C@H](NC(=O)[C@H](CC(C)C)NC(=O)[C@H](Cc1c[nH]cn1)NC(=O)CNC(=O)[C@@H](NC(=O)[C@H](C)NC(=O)[C@H](Cc1c[nH]c2ccccc12)NC(=O)[C@@H](NC(=O)[C@H](Cc1c[nH]c2ccccc12)NC(=O)[C@H](CCC(N)=O)NC(=O)CCCCCCCNC(=O)CN1CCN(CC(=O)O)CCN(CC(=O)O)CC1)C(C)C)C(C)C)C(N)=O [IMP 468] ({NOTA-Aoc}-QWVWAVGHLM-NH2)
blocking of 125I-BBN binding (PC-3细胞): 阻断125I-BBN的结合

Compound: DTPA-Dpr(DTPA)-D-Ala-D-Lys(HSG)-D-Ala-D-Lys(HSG)-NH2 [IMP 333]
blocking of 125I-BBN binding (PC-3细胞): 不能

AR42J tumour uptake (AR42J肿瘤): 29.2±0.5 %ID/g
kidney retention (AR42J肿瘤): 16.2±2.86 %ID/g
lung uptake (AR42J肿瘤): 4.0±0.9 %ID/g
Compound: C[C@@H](O)[C@@H]1NC(=O)[C@H](CCCCN)NC(=O)[C@@H](Cc2c[nH]c3ccccc23)NC(=O)[C@H](Cc2ccccc2)NC(=O)[C@@H](NC(=O)[C@@H](Cc2ccccc2)NC(=O)CN2CCN(CC(=O)O)CCN(CC(=O)O)CC2)CSSC[C@@H](C(=O)N[C@H](CO)[C@@H](C)O)NC1=O [68Ga-IMP 466, metal not drawn]

Compound: C[C@@H](NC(=S)Nc1ccc(C[C@H]2CN(CC(=O)O)CCN(CC(=O)O)CCN2CC(=O)O)cc1)C(=O)N[C@H](CCCCNC(=O)CNC(=O)CCC(=O)NCCc1c[nH]cn1)C(=O)N[C@H](Cc1ccc(O)cc1)C(=O)N[C@H](CCCCNC(=O)CNC(=O)CCC(=O)NCCc1c[nH]cn1)C(N)=O [[Al18F]IMP 449] ({NOTA(2S-Bn(4-NHCS))}-[dA][dK]([Gly-Suc-NH(2-(imidazol-4-yl)ethyl)])[dY][dK]([Gly-Suc-NH(2-(imidazol-4-yl)ethyl)])-NH2)
大肠 (large intestine) uptake, individual animals [2]: 0.167 %ID/g and 0.091 %ID/g and 0.094 %ID/g and 0.109 %ID/g
大肠 (large intestine) uptake, mean [2]: 0.115 %ID/g
小肠 (small intestine) uptake, individual animals [2]: 1.124 %ID/g and 1.247 %ID/g and 1.166 %ID/g and 1.624 %ID/g
小肠 (small intestine) uptake, mean [2]: 1.290 %ID/g
肌肉 (muscle) uptake, individual animals [2]: 0.077 %ID/g and 0.075 %ID/g
脊骨 (spine) uptake, individual animals [2]: 0.268 %ID/g
CaPan1 tumour uptake (CaPan1异种移植物): 4.6±0.9 %ID/g
小肠 (small intestine) uptake, individual animals (LS174 T异种移植物; TF2 163.2μg 16 h before): 0.185 %ID/g
肌肉 (muscle) uptake, individual animals (LS174 T异种移植物; TF2 163.2μg 16 h before): 0.064 %ID/g
肝 (liver) uptake, individual animals (LS174 T异种移植物; TF2 163.2μg 16 h before): 0.196 %ID/g and 0.180 %ID/g
肝 (liver) uptake, mean (LS174 T异种移植物; TF2 163.2μg 16 h before): 0.172 %ID/g
股骨 (femur) uptake, mean (LS174 T异种移植物; TF2 163.2μg 16 h before): 0.625 %ID/g
肺 (lung) uptake, individual animals (LS174 T异种移植物; TF2 163.2μg 16 h before): 0.474 %ID/g and 0.230 %ID/g
胃 (stomach) uptake, mean (LS174 T异种移植物; TF2 163.2μg 16 h before): 0.218 %ID/g
脾 (spleen) uptake, individual animals (LS174 T异种移植物; TF2 163.2μg 16 h before): 0.239 %ID/g and 0.118 %ID/g and 0.140 %ID/g
大肠 (large intestine) uptake, individual animals (LS174 T异种移植物; no pretargeting antibody): 0.118 %ID/g
大肠 (large intestine) uptake, mean (LS174 T异种移植物; no pretargeting antibody): 0.072 %ID/g
肝 (liver) uptake, individual animals (LS174 T异种移植物; no pretargeting antibody): 0.141 %ID/g (2×) and 0.200 %ID/g and 0.185 %ID/g
股骨 (femur) uptake, individual animals (LS174 T异种移植物; no pretargeting antibody): 0.080 %ID/g
股骨 (femur) uptake, mean (LS174 T异种移植物; no pretargeting antibody): 0.100 %ID/g
脑 (brain) uptake, individual animals (LS174 T异种移植物; no pretargeting antibody): 0.077 %ID/g
脾 (spleen) uptake, mean (LS174 T异种移植物; no pretargeting antibody): 0.118 %ID/g
LS174T tumour uptake (LS174T肿瘤 [3]; 6.0 nmol TF2 16 h before, 0.25 nmol peptide): 10.6±1.7 %ID/g
bone uptake (LS174T肿瘤 [3]; mouse, in vivo): 0.54±0.2 %ID/g

Compound: NC(=O)[C@@H](CCCCNC(=O)CNC(=O)CCC(=O)NCCc1c[nH]cn1)NC(=O)[C@@H](CCC(=O)O)NC(=O)[C@@H](CCCCNC(=O)CNC(=O)CCC(=O)NCCc1c[nH]cn1)NC(=O)[C@@H](Cc1ccc(O)cc1)NC(=O)CN1CCN(CC(=O)O)CCN(CC(=O)O)CCN(CC(=O)O)CC1 [68Ga-IMP 288, metal not drawn] ({DOTA}-[dY][dK]([Gly-Suc-NH(2-(imidazol-4-yl)ethyl)])[dE][dK]([Gly-Suc-NH(2-(imidazol-4-yl)ethyl)])-NH2)
LS174T tumour uptake without TF2 pretargeting (LS174T肿瘤 [3]; 1 h p.i.): 0.20±0.03 %ID/g
inflamed muscle-blood ratio (LS174T肿瘤 [3]; mouse, in vivo): 5.9±2.9
tumour-inflamed muscle ratio (LS174T肿瘤 [3]; mouse, in vivo): 12.5±2.1
inflamed muscle-background ratio in PET image (LS174T肿瘤 [4]): 8.9
tumour-inflamed tissue ratio in PET image (LS174T肿瘤 [4]): 5.4

stability of Al18F complex relative to IMP 272 [5]: 显著更稳定
Compound: C[C@@H](NC(=O)[C@H](CNC(=O)C[C@@H](N)c1ccccc1Br)NC(=O)CN(CCN(CCN(CC(=O)O)CC(=O)O)CC(=O)O)CC(=O)O)C(=O)N[C@H](CCCCNC(=O)CNC(=O)CCC(=O)NCCc1c[nH]cn1)C(=O)N[C@H](C)C(=O)N[C@H](CCCCNC(=O)CNC(=O)CCC(=O)NCCc1c[nH]cn1)C(N)=O [IMP 375, DTPA-Dpr(2-Br-Phe-CHNH2-CH2-CO-)-D-Ala-D-Lys(HSG)-D-Ala-D-Lys(HSG)-NH2] ({DTPA}-[Dap](X2)[dA][dK]([Gly-Suc-NH(2-(imidazol-4-yl)ethyl)])[dA][dK]([Gly-Suc-NH(2-(imidazol-4-yl)ethyl)])-NH2)

AR42J tumour uptake (AR42J肿瘤): 28.3±5.7 %ID/g
blood level (AR42J肿瘤): 0.10±0.07 %ID/g
bone uptake (AR42J肿瘤): 0.33±0.07 %ID/g
kidney retention (AR42J肿瘤): 9.96±1.27 %ID/g
lung uptake (AR42J肿瘤): 1.9±0.4 %ID/g
tumour-blood ratio (AR42J肿瘤): 299±88
AR42J tumour uptake with excess unlabelled IMP 466 (AR42J肿瘤; receptor blocking): 8.6±0.7 %ID/g
Compound: C[C@@H](O)[C@@H]1NC(=O)[C@H](CCCCN)NC(=O)[C@@H](Cc2c[nH]c3ccccc23)NC(=O)[C@H](Cc2ccccc2)NC(=O)[C@@H](NC(=O)[C@@H](Cc2ccccc2)NC(=O)CN2CCN(CC(=O)O)CCN(CC(=O)O)CC2)CSSC[C@@H](C(=O)N[C@H](CO)[C@@H](C)O)NC1=O [Al18F-IMP 466]

Compound: LEQYANQLADQIIKEATE [RIAD]
PKA isoform preference (RIIα二聚体): 对RI更大的亲和力

Compound: NC(=O)[C@@H](CCCCNC(=O)CNC(=O)CCC(=O)NCCc1c[nH]cn1)NC(=O)[C@@H](CCC(=O)O)NC(=O)[C@@H](CCCCNC(=O)CNC(=O)CCC(=O)NCCc1c[nH]cn1)NC(=O)[C@@H](Cc1ccc(O)cc1)NC(=O)CN1CCN(CC(=O)O)CCN(CC(=O)O)CCN(CC(=O)O)CC1 [111In-IMP 288, metal not drawn] ({DOTA}-[dY][dK]([Gly-Suc-NH(2-(imidazol-4-yl)ethyl)])[dE][dK]([Gly-Suc-NH(2-(imidazol-4-yl)ethyl)])-NH2)
kidney uptake (LS174T肿瘤 [3]; 0.1 nmol peptide, independent of bsMAb dose): 2 %ID/g

Compound: NOTA-ITC苄基-D-Ala-D-Lys(HSG)-D-Tyr-D-Lys(HSG)-NH2 [IMP 449]
activity still attached to peptide ([1]; 15 min): 9.8 %
activity still attached to peptide ([1]; 1 h): 7.6 %
decomposition of metal-18F-peptide complex ([1]; prepared with ascorbic acid as stabiliser, serum 37℃, 4 h): 没有可检测的分解
18F-labelled peptide stable in serum ([1]; human serum 37℃, at least 1 h): 91 %
18F-labelled peptide stable in serum ([1]; human serum 37℃, at least 4 h): 76 %

histamine-related pharmacological activity in animals [6]: 没有与组胺组分相关的肽的药理活性
Compound: DOTA-D-Tyr-D-Lys(HSG)-D-Glu-D-Lys(HSG)-NH2 [IMP 288]
antagonist or agonist activity at histamine receptors (H1和H2组胺受体): 没有拮抗或激动活性

Compound: DLIEEAASRIVDAVIEQVKAAGAY [Ht-31]
PKA isoform preference (RIIα二聚体): 对PKA的RII同种型更大的亲和力

Compound: C[C@@H](NC(=S)Nc1ccc(CC2CN(CC(=O)O)CCN(CC(=O)O)CCN2CC(=O)O)cc1)C(=O)N[C@H](CCCCNC(=O)CNC(=O)CCC(=O)NCCc1c[nH]cn1)C(=O)N[C@H](Cc1ccc(O)cc1)C(=O)N[C@H](CCCCNC(=O)CNC(=O)CCC(=O)NCCc1c[nH]cn1)C(N)=O (stereo partly drawn) [111In-IMP 449, metal not drawn] (X1-[dA][dK]([Gly-Suc-NH(2-(imidazol-4-yl)ethyl)])[dY][dK]([Gly-Suc-NH(2-(imidazol-4-yl)ethyl)])-NH2)
大肠 (large intestine) uptake, individual animals (LS174 T异种移植物; no pretargeting antibody): 0.253 %ID/g
大肠 (large intestine) uptake, mean (LS174 T异种移植物; no pretargeting antibody): 0.237 %ID/g
胃 (stomach) uptake, individual animals (LS174 T异种移植物; no pretargeting antibody): 0.329 %ID/g
脑 (brain) uptake, individual animals (LS174 T异种移植物; no pretargeting antibody): 0.197 %ID/g
